PubChem BioAssay (NCI)
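Tested at 5 concentrations; 48 h exposure; 96-well plates; endpoints linearly interpolated, else capped at highest concentration. TGI denotes the concentration required for complete inhibition of growth.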

How the values were obtained:
Experiment in all cases: NCI tumour cell line growth inhibition, 48 h
[1] = test system: 786-0 renal
[2] = test system: A498 renal
[3] = test system: A549 NSCLC
[4] = test system: ACHN renal
[5] = test system: CAKI-1 renal
[6] = test system: COLO 205 colon
[7] = test system: DU-145 prostate
[8] = test system: EKVX NSCLC
[9] = test system: HCC-2998 colon
[10] = test system: HCT-116 colon
[11] = test system: HCT-15 colon
[12] = test system: HL-60(TB) leukemia
[13] = test system: HOP-62 NSCLC
[14] = test system: HOP-92 NSCLC
[15] = test system: HS 578T breast
[16] = test system: HT29 colon
[17] = test system: IGROV1 ovarian
[18] = test system: K-562 leukemia
[19] = test system: KM12 colon
[20] = test system: LOX IMVI melanoma
[21] = test system: M14 melanoma
[22] = test system: MALME-3M melanoma
[23] = test system: MCF7 breast
[24] = test system: MDA-MB-231 breast
[25] = test system: MDA-MB-435
[26] = test system: MDA-N
[27] = test system: MOLT-4 leukemia
[28] = test system: NCI-H226 lung
[29] = test system: NCI-H23 lung
[30] = test system: NCI-H460 lung
[31] = test system: NCI-H522 lung
[32] = test system: NCI/ADR-RES ovarian
[33] = test system: OVCAR-3 ovarian
[34] = test system: OVCAR-4 ovarian
[35] = test system: OVCAR-5 ovarian
[36] = test system: OVCAR-8 ovarian
[37] = test system: PC-3 prostate
[38] = test system: RPMI-8226 leukemia
[39] = test system: RXF 393 renal
[40] = test system: SF-268 CNS
[41] = test system: SF-295 CNS
[42] = test system: SF-539 CNS
[43] = test system: SK-MEL-2 melanoma
[44] = test system: SK-MEL-28 melanoma
[45] = test system: SK-MEL-5 melanoma
[46] = test system: SK-OV-3 ovarian
[47] = test system: SN12C renal
[48] = test system: SNB-19 CNS
[49] = test system: SR leukemia
[50] = test system: SW-620 colon
[51] = test system: T-47D breast
[52] = test system: TK-10 renal
[53] = test system: U251 CNS
[54] = test system: UACC-257 melanoma
[55] = test system: UACC-62 melanoma
[56] = test system: UO-31 renal

Measured: TGI

OC1CCCCCCCCCCC1SCCCCl (stereo unspecified)
> 100 µM: all assays above
